Where two headings read alike, the source gives them in different places.
Assays:
[1] = mice, single intraperitoneal injection at 10 mg/kg; cited from earlier work
[2] = target: T1, protein tyrosine phosphatase 1B (PTP1 B) (Homo sapiens, UniProt P18031); conditions: cited from earlier work
T1 sequence (P18031 1-435): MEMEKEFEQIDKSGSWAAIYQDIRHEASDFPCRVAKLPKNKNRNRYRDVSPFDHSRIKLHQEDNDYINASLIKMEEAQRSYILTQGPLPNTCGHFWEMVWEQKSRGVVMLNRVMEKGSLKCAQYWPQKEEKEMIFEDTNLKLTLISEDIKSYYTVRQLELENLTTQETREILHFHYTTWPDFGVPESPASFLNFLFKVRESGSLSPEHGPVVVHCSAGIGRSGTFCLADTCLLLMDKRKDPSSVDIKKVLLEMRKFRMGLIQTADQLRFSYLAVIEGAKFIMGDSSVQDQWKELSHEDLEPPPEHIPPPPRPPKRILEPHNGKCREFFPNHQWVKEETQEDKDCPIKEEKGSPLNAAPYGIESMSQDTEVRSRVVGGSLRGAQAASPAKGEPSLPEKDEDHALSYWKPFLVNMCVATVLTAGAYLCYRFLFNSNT

[3] = test system: phosphatases of regenerating liver (PRL-1, PRL-2, or PRL-3); conditions: cited from earlier work
[4] = test system: endo-exonuclease; conditions: PCT Publication No. WO 01/35935; cited from earlier work
[5] = test system: A549 cells; assay: Anti-proliferation assay (Alamar Blue metabolism); conditions: Homo sapiens;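 also: 384-well plates, 72–80 h exposure at 37 °C, Alamar Blue fluorescence (ex 530 nm) read 3.5–5 h after dye addition, inhibition relative to mean of vehicle-only wells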
Experimental: Human non-small cells lung carcinoma cells A549 (ATCC# CCL-185), were grown at 37±0.5° C. and 5% CO2 in DMEM supplemented with 10% FBS, 2 mM glutamine, 1% penicillin, and 1% streptomycin.
Stock solutions (1000×) of each compound were prepared in DMSO and stored at −20° C. Master stock plates of 2-fold or 4-fold serial dilutions of individual compounds were prepared in 384-well plates. Combination matrices of test compounds were generated from these master stock plates by dilution into growth media described above. […] The combination matrices were used immediately and discarded.
The anti-proliferation assays were performed in 384-well plates. 6.6 μL of 10× stock solutions from the combination matrices were added to 40 μL of culture media in assay wells. The tumor cells were liberated from the culture flask using a solution of 0.25% trypsin. Cells were diluted in culture media such that 3000 or 6000 cells were delivered in 20 μL of media into each assay well. Assay plates were incubated for 72-80 hours at 37° C. ±0.5° C. with 5% CO2. Twenty microliters of 20% Alamar Blue warmed to 37° C. ±0.5° C. was added to each assay well following the incubation period. Alamar Blue metabolism was quantified by the amount of fluorescence intensity 3.5-5.0 hours after addition. Quantification, using an LJL Analyst AD reader (LJL Biosystems), was taken in the middle of the well with high attenuation, a 100 msec read time, an excitation filter at 530 nm, and an emission filter at 575 nm. For some experiments, quantification was performed using a Wallac Victor^2 reader. Measurements were taken at the top of the well with stabilized energy lamp control; a 100 msec read time, an excitation filter at 530 nm, and an emission filter at 590 nm.
The percent inhibition (% I) for each well was calculated using the following formula: % I=[(avg. untreated wells−treated well)/(avg. untreated wells)]×100 The average untreated well value (avg. untreated wells) is the arithmetic mean of 40 wells from the same assay plate treated with vehicle alone.
Inhibition of proliferation was measured by anti-proliferation assay as described below after incubation with the test compound(s) for 72 hours.

## N=C(N)c1ccc(OCCCCCOc2ccc(C(=N)N)cc2)cc1 [Pentamidine, pentamidine]
[1]
  tissue distribution: The concentration in the kidneys was the highest, followed by that in the liver
[2]
  inhibition of protein tyrosine phosphatase 1B: effective inhibitor
[3]
  inhibition of phosphatases of regenerating liver: potent inhibitor
[4]
  inhibition of endo-exonuclease activity: inhibit the activity of endo-exonuclease
[5]; A549, read-out: Percent inhibition of Alamar Blue Metabolism, pentamidine 0.013 μM alone (Table 3)
  inhibition at 0.013 µM: -28.2%
[5]; A549, read-out: Percent inhibition of Alamar Blue Metabolism, pentamidine 0.013 μM alone (Table 4)
  inhibition at 0.013 µM: 8.4%
[5]; A549, read-out: Percent inhibition of Alamar Blue Metabolism, pentamidine 0.013 μM alone (Table 5)
  inhibition at 0.013 µM: 30.2%
[5]; A549, read-out: Percent inhibition of Alamar Blue Metabolism, pentamidine 0.013 μM alone (Table 6)
  inhibition at 0.013 µM: -6.7%
[5]; A549, read-out: Percent inhibition of Alamar Blue Metabolism, pentamidine 0.013 μM alone (Table 7)
  inhibition at 0.013 µM: -4.4%
[5]; A549, read-out: Percent inhibition of Alamar Blue Metabolism, pentamidine 0.026 μM alone (Table 3)
  inhibition at 0.026 µM: -25.3%
[5]; A549, read-out: Percent inhibition of Alamar Blue Metabolism, pentamidine 0.026 μM alone (Table 4)
  inhibition at 0.026 µM: -6.8%
[5]; A549, read-out: Percent inhibition of Alamar Blue Metabolism, pentamidine 0.026 μM alone (Table 5)
  inhibition at 0.026 µM: 28.4%
[5]; A549, read-out: Percent inhibition of Alamar Blue Metabolism, pentamidine 0.026 μM alone (Table 6)
  inhibition at 0.026 µM: 13.1%
[5]; A549, read-out: Percent inhibition of Alamar Blue Metabolism, pentamidine 0.026 μM alone (Table 7)
  inhibition at 0.026 µM: -3%
[5]; A549, read-out: Percent inhibition of Alamar Blue Metabolism, pentamidine 0.050 μM alone (Table 8)
  inhibition at 0.05 µM: 2.4%
[5]; A549, read-out: Percent inhibition of Alamar Blue Metabolism, pentamidine 0.053 μM alone (Table 3)
  inhibition at 0.053 µM: -12.4%
[5]; A549, read-out: Percent inhibition of Alamar Blue Metabolism, pentamidine 0.053 μM alone (Table 4)
  inhibition at 0.053 µM: -8.8%
[5]; A549, read-out: Percent inhibition of Alamar Blue Metabolism, pentamidine 0.053 μM alone (Table 5)
  inhibition at 0.053 µM: 30.4%
[5]; A549, read-out: Percent inhibition of Alamar Blue Metabolism, pentamidine 0.053 μM alone (Table 6)
  inhibition at 0.053 µM: 1.1%
[5]; A549, read-out: Percent inhibition of Alamar Blue Metabolism, pentamidine 0.053 μM alone (Table 7)
  inhibition at 0.053 µM: -1.9%
[5]; A549, read-out: Percent inhibition of Alamar Blue Metabolism, pentamidine 0.100 μM alone (Table 8)
  inhibition at 0.1 µM: -3.1%
[5]; A549, read-out: Percent inhibition of Alamar Blue Metabolism, pentamidine 0.105 μM alone (Table 3)
  inhibition at 0.105 µM: 4.7%
[5]; A549, read-out: Percent inhibition of Alamar Blue Metabolism, pentamidine 0.105 μM alone (Table 4)
  inhibition at 0.105 µM: -3.7%
[5]; A549, read-out: Percent inhibition of Alamar Blue Metabolism, pentamidine 0.105 μM alone (Table 5)
  inhibition at 0.105 µM: 33.7%
[5]; A549, read-out: Percent inhibition of Alamar Blue Metabolism, pentamidine 0.105 μM alone (Table 6)
  inhibition at 0.105 µM: -3.7%
[5]; A549, read-out: Percent inhibition of Alamar Blue Metabolism, pentamidine 0.105 μM alone (Table 7)
  inhibition at 0.105 µM: 9.2%
[5]; A549, read-out: Percent inhibition of Alamar Blue Metabolism, pentamidine 0.200 μM alone (Table 8)
  inhibition at 0.2 µM: -0.7%
[5]; A549, read-out: Percent inhibition of Alamar Blue Metabolism, pentamidine 0.350 μM alone (Table 8)
  inhibition at 0.35 µM: -1.5%
[5]; A549, read-out: Percent inhibition of Alamar Blue Metabolism, pentamidine 0.421 μM alone (Table 4)
  inhibition at 0.421 µM: 50%
[5]; A549, read-out: Percent inhibition of Alamar Blue Metabolism, pentamidine 0.421 μM alone (Table 6)
  inhibition at 0.421 µM: 32.6%
[5]; A549, read-out: Percent inhibition of Alamar Blue Metabolism, pentamidine 0.421 μM alone (Table 7)
  inhibition at 0.421 µM: 10.5%
[5]; A549, read-out: Percent inhibition of Alamar Blue Metabolism, pentamidine 0.422 μM alone (Table 3)
  inhibition at 0.422 µM: 52.1%
[5]; A549, read-out: Percent inhibition of Alamar Blue Metabolism, pentamidine 0.422 μM alone (Table 5)
  inhibition at 0.422 µM: 68.2%
[5]; A549, read-out: Percent inhibition of Alamar Blue Metabolism, pentamidine 0.500 μM alone (Table 8)
  inhibition at 0.5 µM: 15.8%
[5]; A549, read-out: Percent inhibition of Alamar Blue Metabolism, pentamidine 0.700 μM alone (Table 8)
  inhibition at 0.7 µM: 21.7%
[5]; A549, read-out: Percent inhibition of Alamar Blue Metabolism, pentamidine 1.000 μM alone (Table 8)
  inhibition at 1 µM: 48.9%
[5]; A549, read-out: Percent inhibition of Alamar Blue Metabolism, pentamidine 1.300 μM alone (Table 8)
  inhibition at 1.3 µM: 64.7%
[5]; A549, read-out: Percent inhibition of Alamar Blue Metabolism, pentamidine 1.685 μM alone (Table 4)
  inhibition at 1.685 µM: 79.1%
[5]; A549, read-out: Percent inhibition of Alamar Blue Metabolism, pentamidine 1.685 μM alone (Table 6)
  inhibition at 1.685 µM: 71.9%
[5]; A549, read-out: Percent inhibition of Alamar Blue Metabolism, pentamidine 1.685 μM alone (Table 7)
  inhibition at 1.685 µM: 62.9%
[5]; A549, read-out: Percent inhibition of Alamar Blue Metabolism, pentamidine 1.687 μM alone (Table 3)
  inhibition at 1.687 µM: 78.2%
[5]; A549, read-out: Percent inhibition of Alamar Blue Metabolism, pentamidine 1.687 μM alone (Table 5)
  inhibition at 1.687 µM: 83.1%
[5]; A549, read-out: Percent inhibition of Alamar Blue Metabolism, pentamidine 1.700 μM alone (Table 8)
  inhibition at 1.7 µM: 70.1%
[5]; A549, read-out: Percent inhibition of Alamar Blue Metabolism, pentamidine 3.370 μM alone (Table 4)
  inhibition at 3.37 µM: 79.4%
[5]; A549, read-out: Percent inhibition of Alamar Blue Metabolism, pentamidine 3.370 μM alone (Table 6)
  inhibition at 3.37 µM: 80.6%
[5]; A549, read-out: Percent inhibition of Alamar Blue Metabolism, pentamidine 3.370 μM alone (Table 7)
  inhibition at 3.37 µM: 73.7%
[5]; A549, read-out: Percent inhibition of Alamar Blue Metabolism, pentamidine 3.374 μM alone (Table 3)
  inhibition at 3.374 µM: 85.4%
[5]; A549, read-out: Percent inhibition of Alamar Blue Metabolism, pentamidine 3.374 μM alone (Table 5)
  inhibition at 3.374 µM: 87.5%

Source: patent publication US20050054708A1, “Combinations of drugs for the treatment of neoplasms” (priority 2003, published 2005)
